Reference: patent publication US20220339187A1, “ANTIMICROBIAL PEPTIDE-SELENIUM NANOPARTICLES” (The University of Melbourne, priority 2019, published 2022)

Experiments:
[1] = tested on: E. coli ATCC 25922; assay: Membrane potential change test (BacLight, DiOC2(3)); format: cell-based, Escherichia coli; conditions: 6.25 or 12.5 μg/ml (CCCP 5 μM)
Protocol: Membrane potential change was measured using a BacLight Bacterial Membrane Potential Kit (Invitrogen). The bacterial strain methicillin-sensitive S. aureus (MSSA) ATCC 29213, E. faecalis ATCC 29212, E. coli ATCC 25922 were cultured in MHB at 37° C. 50 μL of different concentrations of Se NPs, Se NP-ε-PL or pure ε-PL in PBS solution was added into each well of 96-well microplates. 50 μL MHB with 2.5×10^6 cells/mL bacteria was then added into each well. 50 μL MHB with 2.5×10^6 cells/mL bacteria was added to 50 μL PBS to act as untreated control. Carbonyl cyanide 3-chlorophenylhydrazone (CCCP) was added to untreated control at a final concentration of 5 μM to act as fully depolarized control. 3,3′-Diethyloxacarbocyanine Iodide (DiOC2(3)) was added to all wells at a final concentration of […]. […] The untreated (polarized) and CCCP-treated (fully depolarized) controls were used to determine the percentage of depolarized cells. Two independent experiments were done for this test, and two technical replicates were adopted for each independent experiment.

[2] = tested on: methicillin-sensitive S. aureus ATCC 29213; assay: Resistance development test; format: cell-based, Staphylococcus aureus; conditions: S. aureus cultured at MBC50 concentration
Protocol: (§1) First, one S. aureus or E. coli colony from an agar plate was inoculated into 20 mL MHB and cultured overnight at 37° C. The bacterial suspensions were diluted to 2.5×10^6 bacteria/mL. […] After every 48 h, CFU assays were performed on these bacteria, and the MBCs were calculated. The change in MBCs over the generations was plotted.

[3] = tested on: E. coli ATCC 25922; assay: Resistance development test; format: cell-based, Escherichia coli; conditions: E. coli cultured at MBC50 concentration; 312 generations tested
Protocol: as §1

Structure (SMILES)	depolarisation of cell membrane [1]	generations after which resistance started to develop (rise of MBC) [2]	generations after which resistance started to develop (rise of MBC) [3]
N#CC(C#N)=NNc1cccc(Cl)c1 [CCCP, Carbonyl cyanide 3-chlorophenylhydrazone]	minimal activity	–	–
NC[C@H]1O[C@H](O[C@H]2[C@H](O)[C@@H](O[C@H]3O[C@H](CO)[C@@H](O)[C@H](N)[C@H]3O)[C@H](N)C[C@@H]2N)[C@H](O)[C@@H](O)[C@@H]1O [kanamycin]	–	44 generations	52 generations
